Where two headings read alike, the source gives them in different places.
How the values were obtained:
[1] = test system: Candida albicans(KCTC 1940), Aspergillus niger (ATCC 9642) and Saccharomyces cerevisiae; test: Relative antifungal activity by agar dilution method (vs Miconazole); type: cell-based;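 further: scores 5 to 7 mean a lower fungicidal concentration than Miconazole so higher is more potent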
Description: Novel compounds represented by the above chemical formula (I), and the relative activities in accordance with the agar dilution method in Sabouraud dextrose agar media, Czapek agar media and Yeast Extract-Peptone-Dextrose agar media for Candida albicans(KCTC 1940), Aspergillus niger (ATCC 9642) and Saccharomyces cerevisiae are described respectively in following Table 1.

various kinds of Candida = test: MIC (Minimal Inhibitory Concentration) data; type: cell-based
[2] = Oral toxicity test (general symptoms, weight change, lethal case); type: in vivo, rats (SD); conditions: for LD50: SD, rat, in vivo, 1000 mg/kg, rats, oral, read-out: Acute toxicity LD50; for general symptom / lethal case / weight change: oral, 1,000 mg/kg, suspended in propylene glycol, SD rats
Procedure: Meanwhile, the toxicity test of the compound in table II of the present invention was performed using […]. The compound was suspended in propylene glycol. The resulting suspension was medicated respectively on 6 female rats and 5 male rats (SD) of which age are 5 weeks, via oral after 12 hours starvation. The general symptoms, weight change and lethal case of the above rats were investigated.
In cases of the tests of the compounds (Compound No. 12, 119, 134, 148, 150)(delivery of 1,000 mg/kg), the general symptom and weight change were normal and the lethal case was not observed.

salmonella typhimurium = test: Bacterial reverse mutation test (Ames test); type: cell-based
[3] = test system: cultured lung cells derived from chinese hamster; test: Chromosome aberration test; type: cell-based
Micronucleus test = type: in vivo
[4] = target: sterol-24-methyl transferase (Candida albicans, UniProt O74198); type: biochemical; conditions: in vitro, read-out: Relative Activity (IC50 class)
Description: Moreover, the relative activity for sterol-24-methyl transferase of the above compound in Table 11 is described in Table 13.

[5] = agar dilution method, fungicidal concentration relative to control drug Miconazole (=4)
[6] = cultured lung cells derived from chinese hamster
[7] = C. albicans ATCC 11651, unit assumed
[8] = C. albicans ATCC 28838, unit assumed
[9] = C. albicans IFO 1385, unit assumed
[10] = C. albicans OY-003, unit assumed
[11] = C. albicans OY-019, unit assumed
[12] = C. krusei (KCTC7273), unit assumed
[13] = antifungal activity relative to Miconazole, agar dilution

Sequence of sterol-24-methyl transferase (O74198 whole entry): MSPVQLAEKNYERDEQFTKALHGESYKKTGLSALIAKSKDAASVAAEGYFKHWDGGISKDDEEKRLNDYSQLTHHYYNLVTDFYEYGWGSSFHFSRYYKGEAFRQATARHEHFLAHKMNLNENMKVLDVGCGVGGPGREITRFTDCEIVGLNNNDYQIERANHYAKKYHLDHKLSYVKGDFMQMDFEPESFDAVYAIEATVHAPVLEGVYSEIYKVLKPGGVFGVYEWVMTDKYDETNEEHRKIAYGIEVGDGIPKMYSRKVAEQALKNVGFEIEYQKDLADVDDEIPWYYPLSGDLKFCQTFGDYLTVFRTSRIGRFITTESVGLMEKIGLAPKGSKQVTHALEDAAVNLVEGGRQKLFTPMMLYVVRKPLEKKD

Compound	Relative Activity [1, 5]	LD50 ([2]; female) [mg/kg]	LD50 ([2]; male) [mg/kg]	general symptom [2]	lethal case [2]	weight change [2]	Genetic toxicity AMES test (salmonella typhimurium)	bacterial reverse mutation test (Ames test) result (salmonella typhimurium)	MIC (various kinds of Candida; [7]) [µg/mL]	MIC (various kinds of Candida; [8]) [µg/mL]	MIC (various kinds of Candida; [9]) [µg/mL]	MIC (various kinds of Candida; [10]) [µg/mL]	MIC (various kinds of Candida; [11]) [µg/mL]	MIC (various kinds of Candida; C. albicans U.K, unit assumed) [µg/mL]	MIC (various kinds of Candida; C. glabrata, unit assumed) [µg/mL]	MIC (various kinds of Candida; C. glulliermondi, unit assumed) [µg/mL]	MIC (various kinds of Candida; [12]) [µg/mL]	MIC (various kinds of Candida; C. parapsilosis, unit assumed) [µg/mL]	melting point [°C]	Relative Activity [1, 13]	also measured
CCCCCCCCCCCC1=[N+](Cc2ccc(C(C)(C)C)cc2)CCc2cc(NC)c(OC)cc21	1	> 1500	> 2500	normal	not observed	normal	negative	negative													MIC (various kinds of Candida; C. glabrata): 3.125; MIC (various kinds of Candida; C. glulliermondi): 3.125; Genetic toxicity Chromosome abmormality test [3, 6]: negative; chromosome aberration test result [3, 6]: negative; Genetic toxicity Nucleus test (Micronucleus test; male ICR mice): negative; micronucleus test result (Micronucleus test; male ICR mice): negative
CCCCCCCCCCCC1=[N+](Cc2ccccc2F)CCc2cc(OC)c(OC)cc21.[Cl-] [Compound No. 12, 1-n-undecyl-2-(2-fluorophenyl)methyl-3,4-dihydro-6,7-dimethoxyisoquinolinium chloride]	2	> 1000	> 1500	normal	not observed	normal	negative	negative	1.56	1.56	3.12	1.56	3.12	1.56	1.56	1.56	6.25	1.56			Genetic toxicity Chromosome abmormality test [3]: negative; chromosome aberration test result [3]: negative; Genetic toxicity Nucleus test (Micronucleus test; male ICR mice): negative; micronucleus test result (Micronucleus test; mouse, in vivo): negative
CCCCCCCCCCCC1=[N+](Cc2ccc(C(C)(C)C)cc2)CCc2cc3c(cc21)oc(=O)n3C.[Br-] [Compound No. 115, 7,8-dihydro-1-methyl-6-(4-t-butylphenyl)methyl-5-undecyloxazolo[4,5-g]isoquinolinium-2 (1H)-one bromide]	2																				IC50 [4]: 5 to 50 µM
CCCCCCCCCCCC1=[N+](c2ccc(C(C)(C)C)cc2)CCc2cc(CNC(=O)OCC)ccc21.[Br-] [Compound No. 118, ethyl 3,4-dihydro-2-(4-t-butylphenyl)-1-undecylisoquinolinium-6-ylmethylcabamate bromide]	2																				IC50 [4]: 5 to 50 µM
CCCCCCCCCCCC1=[N+](Cc2ccc(NC(=O)OC(C)(C)C)cc2)CCc2cc(OC)c(OC)cc21.[Cl-] [Compound No. 120, 2-(4-t-butylalcoholcarbonylaminophenyl)methyl-3,4-dihydro-6,7-dimethoxy-1-undecylisoquinolinium chloride]									1.56	1.56	3.12	1.56	3.12	1.56	6.25	3.12	1.56	3.12			IC50 [4]: < 5 µM
CCCCCCCCCCCC1=[N+](Cc2ccc(C(C)(C)C)cc2)CCc2cc(OC)c(OC)cc21.[Cl-] [Compound No. 127, 1-undecyl-2-(4-t-butylphenyl)methyl-3,4-dihydro-6,7-dimethoxy isoquinolinium chloride]	1								0.78	1.56	0.78	1.56	0.78	1.56	1.56	1.56	1.56	1.56	85		
CCCCCCCCOc1c(C[N+]2=C(CCc3ccc(C(C)(C)C)cc3)c3cc(OC)c(OC)cc3CC2)cccc1OC [Compound No. 134, 1-(2-(4-t-butylphenyl))ethyl-2-(2-octyloxy-3-methoxyphenyl)methyl-3,4-dihydro-6,7-dimethoxy isoquinolinium chloride]	1	> 1000	> 1200	normal	not observed	normal	negative	negative	3.12	1.56	3.12	1.56	1.56	1.56	3.12	1.56	3.12	6.25			Genetic toxicity Chromosome abmormality test [3]: negative; chromosome aberration test result [3]: negative; Genetic toxicity Nucleus test (Micronucleus test; male ICR mice): negative; micronucleus test result (Micronucleus test; mouse, in vivo): negative
CCCc1c2cc(OC)c(OC)cc2cc[n+]1Cc1c(F)cccc1Cl.[Cl-] [Compound No. 139, 1-propyl-2-(2-chloro-6-fluorophenyl)methyl-6,7-dimethoxy-isoquinolinium chloride]																			78	6	
COc1cc2cc[n+](Cc3c(F)cccc3Cl)c(C)c2cc1OC.[Cl-] [Compound No. 140, 1-methyl-2-(2-chloro-6-fluorophenyl)methyl-6,7-dimethoxyisoquinolinium chloride]																			96	6	
COc1cc2cc[n+](Cc3ccc(C(C)(C)C)cc3)c(C)c2cc1OC.[Cl-] [Compound No. 143, 1-methyl-2-(4-t-butylphenyl)methyl-6,7-dimethoxyisoquinolinium chloride]																			350	6	
CCCc1c2cc(OC)c(OC)cc2cc[n+]1Cc1ccc(C(C)(C)C)cc1.[Cl-] [Compound No. 144, 1-propyl-2-(4-t-butylphenyl)methyl-6,7-dimethoxyisoquinolinium chloride]																			79	6	
CCCCCCc1c2cc(OC)c(OC)cc2cc[n+]1Cc1ccc(C(C)(C)C)cc1.[Cl-] [Compound No. 145, 1-hexyl-2-(4-t-butylphenyl)methyl-6,7-dimethoxyisoquinolinium chloride]																			105	4	
CCCCCCCCCCCCCCCc1c2cc(OC)c(OC)cc2cc[n+]1Cc1ccc(C(C)(C)C)cc1.[Cl-] [Compound No. 147, 1-pentadecyl-2-(4-t-butylphenyl)methyl-6,7-dimethoxyisoquinolinium chloride]																			120	1	
CCCCCCCCOc1c(C[n+]2ccc3cc(OC)c(OC)cc3c2CCc2ccc(C(C)(C)C)cc2)cccc1OC [Compound No. 148, 1-(2-(4-t-butylphenyl))ethyl-2-(2-octyloxy)-3-dimethoxyphenyl)methyl-6,7-dimethoxyisoquinolinium chloride]		> 1200	> 1500	normal	not observed	normal	negative	negative	1.56	1.56	1.56	1.56	1.56	1.56	3.12	1.56	1.56	3.12		1	MIC (various kinds of Candida; C. albicnas ATCC 10231, unit assumed): 0.78 µg/mL; Genetic toxicity Chromosome abmormality test [3]: negative; chromosome aberration test result [3]: negative; Genetic toxicity Nucleus test (Micronucleus test; male ICR mice): negative; micronucleus test result (Micronucleus test; mouse, in vivo): negative
COc1cc2cc[n+](Cc3cccc(OC)c3OCc3c(F)cccc3Cl)c(CCc3ccc(C(C)(C)C)cc3)c2cc1OC [Compound No. 150, 1-(2-(4-t-butylphenyl))ethyl-2-(2-(2-chloro-6-fluorobenzyloxy)-3-methoxyphenyl)methyl-6,7-dimethoxyisoquinolinium chloride]		> 1500	> 2000	normal	not observed	normal	negative	negative	1.56	1.56	6.25	0.78	1.56	0.78	12.5	1.6	1.56	12.5		1	Genetic toxicity Chromosome abmormality test [3]: negative; chromosome aberration test result [3]: negative; Genetic toxicity Nucleus test (Micronucleus test; male ICR mice): negative; micronucleus test result (Micronucleus test; mouse, in vivo): negative

From patent US20090221829A1 (priority 2005, published 2009)
